{
  "source": "PubChem BioAssay AID1259409",
  "about": "(Chemical Carcinogenesis Research Information System (CCRIS), 2018)",
  "origin": "cited, not measured here",
  "test_system": "rodent chemically induced tumor inhibition, incidence and multiplicity",
  "test": "CCRIS tumor inhibitor studies",
  "data": [
    {"smiles": "O=c1c(-c2ccc(O)cc2)coc2cc(O)cc(O)c12", "values": [
      {"measurement": "tumour outcome (control, treated, inhibition, significance)", "setting": "Carcinogen: 7,12-DIMETHYLBENZ[A]ANTHRACENE (57-97-6), Dose [Inhibitor]: 140 MG/KG DIET FOR 17 WKS (STUDY DURATION: 17 WKS), Route [Inhibitor]: DIET, Species: RAT, Strain/Sex: SPRAGUE-DAWLEY/FEMALE (20,18)/(20,19), Target Tissue: Type of Lesion: MAMMARY, Dose [Carcinogen]: 12.5 MG ONCE 1 WK AFTER START OF DIET (STUDY DURATION: 17 WKS)", "result": "95%, 85%, 11%, p=0.408"},
      {"measurement": "tumour outcome (control, treated, inhibition, significance)", "setting": "Carcinogen: 7,12-DIMETHYLBENZ[A]ANTHRACENE [57-97-6], Dose [Inhibitor]: 20 UG/L IN 0.05 ML PEANUT OIL 2X/WK FOR 2 WK BEGINNING AT 7 D OF AGE (STUDY DURATION: 24 WK), Route [Inhibitor]: SUBCUTANEOUS, Species: RAT, Strain/Sex: SPRAGUE-DAWLEY/FEMALE, Target Tissue: Type of Lesion: MAMMARY GLAND: TUMOR, Dose [Carcinogen]: 10 MG IN 1 ML PEANUT OIL ONCE AT 45 D OF AGE (STUDY DURATION: 24 WK), Promoter: NONE", "result": "17/30 (57%), 13/30 (43%), 25%, not significant"},
      {"measurement": "tumour outcome (control, treated, inhibition, significance)", "setting": "Carcinogen: 7,12-DIMETHYLBENZ[A]ANTHRACENE, 57-97-6, Dose [Inhibitor]: 0, 25 PPM IN DIET FOR 50 WK BEGINNING 1 WK POST-CARCINOGEN DOSE (STUDY DURATION: 51 WK), Route [Inhibitor]: ORAL, Species: RAT, Strain/Sex: SPRAGUE-DAWLEY/FEMALE, Target Tissue: Type of Lesion: OVARY: ADENOCARCINOMA, Dose [Carcinogen]: 0.01 ML OF 0.5% DMBA IN OLIVE OIL INTO THE LEFT OVARY, ONCE, UNDER PENTOBARBITAL ANESTHESIA, Promoter: NONE USED", "result": "7/20 (35%), 1/20 (5%), 86%, p=0.02"},
      {"measurement": "tumour outcome (control, treated, inhibition, significance)", "setting": "Carcinogen: 7,12-DIMETHYLBENZ[A]ANTHRACENE, 57-97-6, Dose [Inhibitor]: 0, 250 PPM IN DIET FOR 50 WK BEGINNING 1 WK POST-CARCINOGEN DOSE (STUDY DURATION: 51 WK), Route [Inhibitor]: ORAL, Species: RAT, Strain/Sex: SPRAGUE-DAWLEY/FEMALE, Target Tissue: Type of Lesion: OVARY: ADENOCARCINOMA, Dose [Carcinogen]: 0.01 ML OF 0.5% DMBA IN OLIVE OIL INTO THE LEFT OVARY, ONCE, UNDER PENTOBARBITAL ANESTHESIA, Promoter: NONE USED", "result": "7/20 (35%), 0/20 (0%), 100%, p=0.0042"},
      {"measurement": "tumour outcome (control, treated, inhibition, significance)", "setting": "Carcinogen: 7,12-DIMETHYLBENZ[A]ANTHRACENE, 57-97-6, Dose [Inhibitor]: 0, 500 UG/G BW ONCE ON DAYS 16, 18 AND 20 OF AGE (STUDY DURATION: 200 D), Route [Inhibitor]: SUBCUTANEOUS, Species: RAT, Strain/Sex: SPRAGUE-DAWLEY/FEMALE, Target Tissue: Type of Lesion: MAMMARY GLAND: TUMOR, Dose [Carcinogen]: 80 UG/G BW IN SESAME OIL ONCE AT 50 DAYS OF AGE, Promoter: NONE USED", "result": "92%, 85%, 8%, not significant"},
      {"measurement": "outcome", "setting": "Carcinogen: Dimethylbenzanthracene, 57-97-6, Dose [Inhibitor]: 10 mg/kg bw/day, suspended in distilled water daily by gavage, dose duration 12 wk, study duration 18 wk, Route [Inhibitor]: Oral, Species: Hamster, Strain/Sex: Syrian golden/Male, Target Tissue: Type of Lesion: Oral cavity, Dose [Carcinogen]: 100 ul of 0.5% DMBA in mineral oil applied with a paint brush 3 times/wk for 6 wk, Promoter: None", "result": "15/28 (53%), 11/27 (40.7%), not significant"},
      {"measurement": "tumour outcome (control, treated, inhibition, significance)", "setting": "Carcinogen: N-METHYL-N'-NITRO-N-NITROSOGUANADINE, 70-25-7, Dose [Inhibitor]: 0, 15 MG/KG 1/2 D FOR 26 WK BEGINNING 1 WK POST CARCINOGEN TREATMENT (STUDY DURATION: 52 WK), Route [Inhibitor]: SUBCUTANEOUS, Species: RAT, Strain/Sex: WISTAR/MALE, Target Tissue: Type of Lesion: STOMACH: ADENOCARCINOMA, Dose [Carcinogen]: 25 UG/ML IN DRINKING WATER FOR 25 WK, Promoter: SODIUM CHLORIDE, 7647-14-5", "result": "18/20 (90%), 12/20 (60%), 33%, not significant"},
      {"measurement": "tumour outcome (control, treated, inhibition, significance)", "setting": "Carcinogen: N-METHYL-N-NITROSOUREA, 684-93-5, Dose [Inhibitor]: 0, 1 MG/30 G BW 1/4 WK FOR 25 WK BEGINNING 5 WK POST CARCINOGEN TREATMENT (STUDY DURATION: 30 WK), Route [Inhibitor]: SUBCUTANEOUS, Species: MOUSE, Strain/Sex: ICR/FEMALE, Target Tissue: Type of Lesion: UTERUS (LEFT): ADENOCARCINOMA, Dose [Carcinogen]: 0.1 MG/KG BW INJECTED INTO LEFT UTERINE TUBE ONCE", "result": "3/26 (11%), 0/15 (0%), 100%, not significant"},
      {"measurement": "tumour outcome (control, treated, inhibition, significance)", "setting": "Carcinogen: N-METHYL-N-NITROSOUREA, 684-93-5, Dose [Inhibitor]: 0, 1 MG/30 G BW 1/4 WK FOR 25 WK BEGINNING 5 WK POST CARCINOGEN TREATMENT (STUDY DURATION: 30 WK), Route [Inhibitor]: SUBCUTANEOUS, Species: MOUSE, Strain/Sex: ICR/FEMALE, Target Tissue: Type of Lesion: UTERUS (LEFT): ADENOCARCINOMA, Dose [Carcinogen]: 0.1 MG/KG BW INJECTED INTO LEFT UTERINE TUBE ONCE, Promoter: 17-BETA-ESTRADIOL, 50-28-2", "result": "8/24 (33%), 0/19 (0%), 100%, p<0.01"},
      {"measurement": "tumour outcome (control, treated, inhibition, significance)", "setting": "Carcinogen: N-METHYL-N;-NITRO-N-NITROSOGUANIDINE, 70-25-7, Carcinogen: N-METHYL-N;-NITRO-N-NITROSOGUANIDINE, 70-25-7, Dose [Inhibitor]: 0, 30 MG/KG 1/2 FOR 26 WK BEGINNING 1 WK POST CARCINOGEN TREATMENT (STUDY DURATION: 52 WK), Route [Inhibitor]: SUBCUTANEOUS, Species: RAT, Strain/Sex: WISTAR/MALE, Target Tissue: Type of Lesion: STOMACH: ADENOCARCINOMA, Dose [Carcinogen]: 25 UG/ML IN DRINKING WATER FOR 25 WK, Promoter: SODIUM CHLORIDE, 7647-14-5", "result": "18/20 (90%), 7/19 (37%), 59%, p<0.05"}
    ]},
    {"smiles": "C[C@H](CCC(=O)O)[C@H]1CC[C@H]2[C@@H]3[C@@H](O)C[C@@H]4C[C@H](O)CC[C@]4(C)[C@H]3CC[C@]12C", "values": [
      {"measurement": "tumour outcome (control, treated, inhibition, significance)", "setting": "Carcinogen: AZOXYMETHANE, 25843-45-2, Dose [Inhibitor]: 0, 0.2% IN DIET FOR 28 WK BEGINNING 2 WK PRIOR TO CARCINOGEN TREATMENT (STUDY DURATION: 30 WK), Route [Inhibitor]: ORAL, Species: RAT, Strain/Sex: F344/MALE, Target Tissue: Type of Lesion: COLON: TUMOR, Dose [Carcinogen]: 15 MG/KG BW 1/WK FOR 2 WK, Promoter: CHOLIC ACID, 81-25-4", "result": "30/47 (64%), 20/47 (43%), 33%, not significant"},
      {"measurement": "tumour outcome (control, treated, inhibition, significance)", "setting": "Carcinogen: AZOXYMETHANE, 25843-45-2, Dose [Inhibitor]: 0, 0.2% IN DIET FOR 28 WK BEGINNING 2 WK PRIOR TO CARCINOGEN TREATMENT (STUDY DURATION: 30 WK), Route [Inhibitor]: ORAL, Species: RAT, Strain/Sex: F344/MALE, Target Tissue: Type of Lesion: COLON: TUMOR, Dose [Carcinogen]: 15 MG/KG BW 1/WK FOR 2 WK, Promoter: NONE USED", "result": "20/43 (47%), 23/48 (48%), -2%, not significant"},
      {"measurement": "tumour outcome (control, treated, inhibition, significance)", "setting": "Carcinogen: AZOXYMETHANE, 25843-45-2, Dose [Inhibitor]: 0, 0.4% IN DIET FOR 28 WK BEGINNING 2 WK PRIOR TO CARCINOGEN TREATMENT (STUDY DURATION: 30 WK), Route [Inhibitor]: ORAL, Species: RAT, Strain/Sex: F344/MALE, Target Tissue: Type of Lesion: COLON: TUMOR, Dose [Carcinogen]: 15 MG/KG BW 1/WK FOR 2 WK, Promoter: NONE USED", "result": "20/43 (47%), 10/45 (22%), 53%, p<0.05"}
    ]},
    {"smiles": "CCCCCCCCCCCCCCCC(=O)OCC(COC(=O)CCCCCCCCCCCCCCC)OC(=O)CCCCCCCCCCCCCCC", "values": [
      {"measurement": "tumour outcome (control, treated, inhibition, significance)", "setting": "Carcinogen: DIMETHYLBENZANTHRACENE, 57-97-6, Dose [Inhibitor]: APPLIED 3 MIN POST EACH PROMOTER DOSE 3/WK FOR 20 WK BEGINNING 3 D POST CARCINOGEN DOSE (STUDY DURATION: 20 WK), Route [Inhibitor]: DERMAL, Species: MOUSE, Strain/Sex: SWISS/?, Target Tissue: Type of Lesion: SKIN: TUMOR, Dose [Carcinogen]: 250 UG/0.25 ML ONCE, Promoter: CROTON OIL, 8001-28-3", "result": "100%, 25%, 75%, not calculated"}
    ]}
  ]
}
